{
  "source": "patent US12544372B2",
  "about": "“Methods of treating rheumatoid arthritis, chronic spontaneous urticaria, and systemic lupus erythematosis using an inhibitor of Bruton's tyrosine kinase” (Genentech, Inc., priority 2019, dated 2026)",
  "key": {"[1]": {"test_system": "patients with refractory chronic spontaneous urticaria", "experiment": "Phase II CSU study (Cohorts 1 and 2): UAS7, weekly itch, weekly hives", "format": "in vivo, human", "text": "A Phase II, Multicenter, Randomized, Double-Blind, Placebo-Controlled Pilot and Dose-Ranging Study of Fenebrutinib in Patients with Refractory Chronic Spontaneous Urticaria (CSU)\nThis study was designed to evaluate the efficacy and safety of fenebrutinib compared with placebo as add-on therapy for the treatment of adult patients 18-75 years old who have been diagnosed with CSU and who remain symptomatic despite treatment with H1 antihistamines. Specific objectives and corresponding endpoints for the study are outlined below.\nThis pilot and dose-ranging study is a multicenter, randomized, double-blind, placebo-controlled, parallel-group study of the efficacy and safety of fenebrutinib as add-on therapy for the treatment of adult patients 18-75 years old who have been diagnosed with CSU and who remain symptomatic despite treatment with H1 antihistamines (including doses up to 4 times the approved dose per local treatment guidelines). The study consists of two cohorts. Cohort 1 enrolled 41 patients across multiple sites. After screening, eligible patients were randomly allocated in a ˜2:1 ratio to receive fenebrutinib 200 mg orally (PO) twice daily (BID) (n=28) or matching placebo (n=13) for 8 weeks and maintain stable doses of standard-of-care H1 antihistamine therapy throughout the study. A dose-ranging cohort, Cohort 2, enrolled approximately 120 patients randomly allocated in a 1:1:1:1 ratio received 50 mg PO daily (QD), 150 mg PO QD, 200 mg PO BID of GDC-0853, or placebo, respectively, for 8 weeks while maintaining stable doses of standard-of-care H1 antihistamine therapy throughout the study.\nBoth cohorts consist of three study periods over 14 weeks: (i) a screening period (Day −14 to Day −1), (ii) a treatment period [Day 1 to Day 57 (Week 0 to Week 8)], and (iii) a follow-up period [Day 57 to Day 85 (Week 8 to Week 12)].\nThe primary efficacy endpoint was measured at Week 8 (Day 57). Patients must have maintained stable doses of their pre-randomization H1 antihistamine therapy throughout the treatment period. After completion of the 8-week treatment period, all patients in both cohorts will enter a 4-week safety follow-up period in which no fenebrutinib treatment is given as patients maintain stable doses of their pre-randomization H1 antihistamine therapy.\nThe primary efficacy endpoint was the change in baseline in the UAS7 at Week 8 (Day 57). The change in the UAS7 (Table 9) is a summation of the average daily (a.m./p.m.) scores on the UAS (range: 0-6), which is a composite diary score with numeric severity intensity ratings on a scale of 0-3 (0=none to 3=intense/severe) for two domains: the intensity of the itch and the number of wheals/hives. The UAS is recorded by the patient twice daily (morning and evening) in the patient Urticaria Patient Daily eDiary.\nContinuous longitudinal efficacy endpoints will be analyzed using a mixed model for repeated measures (MMRM) and descriptive statistics as appropriate. Additional model covariates will include baseline UAS7 and its interaction with visit. Missing data will be handled by the model under the missing-at-random assumption without need for imputation.\nThe secondary efficacy measurements are as described above in the “Study Objectives” section of this Example 2, and apply the UAS7 score and the weekly itch score measurement. Weekly itch scores are measured as part of the study patient's Urticaria Patient Daily eDiary."}, "Total IgG": {"test_system": "Total IgG", "experiment": "SLE study biomarker: total IgG", "format": "in vivo, human"}, "[2]": {"settings": "Cohort 1, 200 mg BID vs placebo"}},
  "note": "Marks after values point to notes of the source that are not given here.",
  "data": [
    {"compound": "C[C@H]1CN(C2COC2)CCN1c1ccc(Nc2cc(-c3ccnc(N4CCn5c(cc6c5CC(C)(C)C6)C4=O)c3CO)cn(C)c2=O)nc1", "note": "[fenebrutinib, (S)-2-(3′-(hydroxymethyl)-1-methyl-5-((5-(2-methyl-4-(oxetan-3-yl)piperazin-1-yl)pyridin-2-yl)amino)-6-oxo-1,6-dihydro-[3,4′-bipyridin]-2′-yl)-7,7-dimethyl-2,3,4,6,7,8-hexahydro-1H-cyclopenta[4,5]pyrrolo[1,2-a]pyrazin-1-one]", "values": [
      {"measurement": "UAS7 - Change from BL to Week 4, Mean (SD)", "setting": "[1]; Cohort 1, 200 mg BID", "value": "−21.1 (11.3)"},
      {"measurement": "UAS7 - Change from BL to Week 4, Median", "setting": "[1]; Cohort 1, 200 mg BID", "value": "−22.5"},
      {"measurement": "UAS7 - Change from BL to Week 8, Mean (SD)", "setting": "[1]; Cohort 1, 200 mg BID", "value": "−21.6 (11.8)"},
      {"measurement": "UAS7 - Change from BL to Week 8, Median", "setting": "[1]; Cohort 1, 200 mg BID", "value": "−23.0"},
      {"measurement": "Weekly Hive Score - Change from BL to Week 4, Mean (SD)", "setting": "[1]; Cohort 1, 200 mg BID", "value": "−11.6 (6.8)"},
      {"measurement": "Weekly Hive Score - Change from BL to Week 4, Median", "setting": "[1]; Cohort 1, 200 mg BID", "value": "−14.0"},
      {"measurement": "Weekly Hive Score - Change from BL to Week 8, Mean (SD)", "setting": "[1]; Cohort 1, 200 mg BID", "value": "−12.2 (7.1)"},
      {"measurement": "Weekly Hive Score - Change from BL to Week 8, Median", "setting": "[1]; Cohort 1, 200 mg BID", "value": "−14.0"},
      {"measurement": "Weekly Itch Severity - Change from BL to Week 4, Mean (SD)", "setting": "[1]; Cohort 1, 200 mg BID", "value": "−9.5 (5.4)"},
      {"measurement": "Weekly Itch Severity - Change from BL to Week 4, Median", "setting": "[1]; Cohort 1, 200 mg BID", "value": "−9.0"},
      {"measurement": "Weekly Itch Severity - Change from BL to Week 8, Mean (SD)", "setting": "[1]; Cohort 1, 200 mg BID", "value": "−9.4 (5.6)"},
      {"measurement": "Weekly Itch Severity - Change from BL to Week 8, Median", "setting": "[1]; Cohort 1, 200 mg BID", "value": "−9.0"},
      {"measurement": "UAS7 - Change from BL to Week 4, Treatment difference in LS means, 90% CI", "setting": "[1]; [2]", "value": "−12.5 (−18.9, −6.1) 0.002"},
      {"measurement": "UAS7 - Change from BL to Week 8, Treatment difference in LS means, 90% CI", "setting": "[1]; [2]", "value": "−4.3 (−11.3, 2.7) 0.305"},
      {"measurement": "Weekly Hive Score - Change from BL to Week 4, Treatment difference in LS means, 90% CI", "setting": "[1]; [2]", "value": "−7.5 (−11.2, −3.7) 0.002"},
      {"measurement": "Weekly Hive Score - Change from BL to Week 8, Treatment difference in LS means, 90% CI", "setting": "[1]; [2]", "value": "−2.8 (−6.9, 1.4) 0.269"},
      {"measurement": "Weekly Itch Severity - Change from BL to Week 4, Treatment difference in LS means, 90% CI", "setting": "[1]; [2]", "value": "−5.5 (−8.5, −2.6) 0.003"},
      {"measurement": "Weekly Itch Severity - Change from BL to Week 8, Treatment difference in LS means, 90% CI", "setting": "[1]; [2]", "value": "−1.3 (−4.5, 1.8) 0.479"},
      {"measurement": "patients well-controlled (UAS7≤6)", "setting": "[1]; Cohort 1, 200 mg BID, Week 4", "value": 64, "unit": "%"},
      {"measurement": "well-controlled patients, % treatment difference over placebo", "setting": "[1]; Cohort 1, 200 mg BID, Week 4", "value": 48.6, "unit": "%"},
      {"measurement": "patients well-controlled (UAS7≤6)", "setting": "[1]; Cohort 1, 200 mg BID, Week 8", "value": 65, "unit": "%"},
      {"measurement": "well-controlled patients, % treatment difference over placebo", "setting": "[1]; Cohort 1, 200 mg BID, Week 8", "value": 31.9, "unit": "%"},
      {"measurement": "weekly itch scores (treatment difference in LS means)", "setting": "[1]; Cohort 1 and Cohort 2, each treatment group, all comers, Week 8", "value": "reduced weekly itch scores in each group"},
      {"measurement": "Total IgG, Median Change from Baseline at Week 48", "setting": "Total IgG; 150 mg QD", "value": "−1.25* g/L"},
      {"measurement": "Total IgG, Median Change from Baseline at Week 48", "setting": "Total IgG; 200 mg BID", "value": "−1.56* g/L"}
    ]}
  ]
}
